In assay [1] the target is T1, unphosphorylated c-FMS kinase (uFMS, Seq. ID no. 1) (Homo sapiens, UniProt P07333).
T1 construct: purchased Millipore
T1 sequence (P07333 538-972): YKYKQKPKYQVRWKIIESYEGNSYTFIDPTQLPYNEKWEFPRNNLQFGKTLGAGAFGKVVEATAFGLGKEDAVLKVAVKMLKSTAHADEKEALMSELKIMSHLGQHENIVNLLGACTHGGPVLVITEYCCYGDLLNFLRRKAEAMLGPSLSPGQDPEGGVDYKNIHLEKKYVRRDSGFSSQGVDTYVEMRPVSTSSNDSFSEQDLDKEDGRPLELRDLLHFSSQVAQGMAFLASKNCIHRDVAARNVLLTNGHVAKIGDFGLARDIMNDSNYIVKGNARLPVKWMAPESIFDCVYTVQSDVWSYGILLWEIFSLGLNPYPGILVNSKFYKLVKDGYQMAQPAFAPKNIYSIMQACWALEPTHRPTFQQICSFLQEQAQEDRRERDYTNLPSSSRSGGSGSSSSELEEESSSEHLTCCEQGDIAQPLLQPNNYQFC
The experiment in a line: uFMS kinase enzymatic assay (pyruvate kinase/lactate dehydrogenase coupled). The assay is classed as biochemical. Particulars: ATP 500 μM, rate 3 to 4 h. The essentials: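 Coupled PK/LDH assay following NADH oxidation at A340 with 10 nM unphosphorylated FMS, 1 mg/mL polyE4Y, 500 μM ATP in 90 mM Tris pH 7.5, 0.2% octyl-glucoside, 1% DMSO. Read continuously 4 h at 30 °C; rate from 3–4 h window versus no-compound control; IC50 from percent-inhibition series.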

Assay [2] concerns phospho-FMS in THP-1 cells. The experiment in a line: Phospho-FMS ELISA assay in THP-1 cells. The assay is classed as cell-based. Conditions: Homo sapiens, 4 h compound, M-CSF stimulation 5 min, read-out: pFMS inhibition in THP-1 cells. As to the method:
THP-1 cells (catalog #TIB-202) were obtained from the ATCC. Briefly, cells were grown in RPMI 1640 supplemented with 10% characterized fetal bovine serum, 1% sodium pyruvate, 1% Penicillin-Streptomycin-Glutamine (PSG) and 55 uM 2-mercaptoethanol (Invitrogen, Carlsbad, Calif.) at 37 degrees Celsius, 5% CO2, 95% humidity. Cells were allowed to expand until reaching 70-95% confluency at which point they were subcultured or harvested for assay use.
A serial dilution of test compound was diluted 1:100 in assay medium (RPMI 1640 supplemented with 10% characterized fetal bovine serum) in a 96 well black clear bottom plate (Corning, Corning, N.Y.). In a separate 96 well black clear bottom plate, one hundred and fifty thousand THP-1 cells were added per well in 100 μL in assay medium. Fifty microliters of diluted compound was then added to the cells. Plates were incubated for 4 hours at 37 degrees Celsius, 5% CO2, 95% humidity. At the end of the incubation period, cells were stimulated with 50 μL of a 100 nM solution of recombinant human M-CSF (catalog #216-MC, R & D Systems, Minneapolis, Minn.) in assay medium and the plate was incubated for 5 minutes at 37 degrees Celsius, 5% CO2, 95% humidity. Lysates were prepared and used to perform the phospho-FMS ELISA as described by the manufacturer (catalog #DYC3268, R & D Systems, Minneapolis, Minn.). GraphPad Prism was used to calculate IC50 values obtained from data generated from the ELISA assay.
A general note: ELISA stands for enzyme-linked immunosorbent assay.

For assay [3], the system named is MDA-MB-231-luc-D3H2LN human breast carcinoma xenograft. Briefly: MDA-MB-231 xenograft study. The assay is classed as in vivo, mouse. Particulars: orally dosed at 15 mpk twice daily. As to the method: MDA-MB-231 Xenograft Study
To evaluate the in vivo anti-cancer activity compounds of Formula I, a MDA-MB-231-luc-D3H2LN human breast carcinoma xenograft was employed. Briefly, MDA-MB-231-luc-D3H2LN cells were obtained from Xenogen and expanded in Minimal Essential Media (MEM) with EBSS which was modified with 1% L-glutamine and supplemented with 10% FBS, 1% PSG, 1% non-essential amino acids, and 1% sodium pyruvate. The growth environment was maintained in an incubator with a 5% CO2 atmosphere at 37° C. Cells were harvested and re-suspended using 50% serum-free media and 50% Matrigel® to generate a stock concentration of 5×10^6 cells/mL.
Six to 7 week old female C.B-17/IcrHsd-PrkdcscidLystbg mice were injected with 200 μL of cell suspension subcutaneously, just below the right axilla. All procedures carried out in this experiment were conducted in compliance with all the laws, regulations and guidelines of the National Institutes of Health (NIH). Treatment began when the mean tumor burden is approximately 150 mg. All mice were dosed with test compound by oral gavage. Body weights and tumor measurements were recorded three times weekly. […] Images were analyzed using Living Image (Xenogen, Alameda, Calif.) software. […]

As for `Cc1nc(-n2nc(C(C)(C)C)[nH]c2=O)ccc1Oc1ccnc(-c2cnn(C)c2)c1` [Example 7, 3-(tert-butyl)-1-(6-methyl-5-((2-(1-methyl-1H-pyrazol-4-yl)pyridin-4-yl)oxy)pyridin-2-yl)-1H-1,2,4-triazol-5(4H)-one], the values for the IC50 in assay [1] and in assay [2] were at most 10 nM and 10 to 100 nM, respectively. The molecule also registered a tumor growth inhibition in assay [3] of 39%.
In the case of `Cc1nc(-n2nc(CC(C)(C)C)[nH]c2=O)ccc1Oc1ccnc(-c2cnn(C)c2)c1` [Example 36, 1-(6-methyl-5-((2-(1-methyl-1H-pyrazol-4-yl)pyridin-4-yl)oxy)pyridin-2-yl)-3-neopentyl-1H-1,2,4-triazol-5(4H)-one], the IC50 in assay [1] was at most 10 nM; in assay [2] it was 10 to 100 nM.
As for `Cc1nc(-n2nc(Cc3ccc(F)cc3)[nH]c2=O)ccc1Oc1ccnc(-c2cnn(C)c2)c1` [Example 1, 3-(4-fluorobenzyl)-1-(6-methyl-5-((2-(1-methyl-1H-pyrazol-4-yl)pyridin-4-yl)oxy)pyridin-2-yl)-1H-1,2,4-triazol-5(4H)-one], the figures for the IC50 in assay [1] and in assay [2] were at most 10 nM and 10 to 100 nM, respectively.
Take `Cc1nc(-n2cc(C(C)(C)C)[nH]c2=O)ccc1Oc1ccnc(-c2cnn(C)c2)c1` [Example 48, 4-(tert-butyl)-1-(6-methyl-5-((2-(1-methyl-1H-pyrazol-4-yl)pyridin-4-yl)oxy)pyridin-2-yl)-1H-imidazol-2(3H)-one]: the IC50 in assay [1] and in assay [2] was 10 to 100 nM in each case.
For the molecule `Cc1nc(-n2nc(Cc3ccccc3)[nH]c2=O)ccc1Oc1ccnc(-c2cnn(C)c2)c1` [Example 2, 3-benzyl-1-(6-methyl-5-((2-(1-methyl-1H-pyrazol-4-yl)pyridin-4-yl)oxy)pyridin-2-yl)-1H-1,2,4-triazol-5(4H)-one], the IC50 in assay [1] and in assay [2] was at most 10 nM throughout.
Take `COCC(C)(C)c1nn(-c2ccc(Oc3ccnc(-c4cnn(C)c4)c3)c(C)n2)c(=O)[nH]1` [Example 46, 3-(1-methoxy-2-methylpropan-2-yl)-1-(6-methyl-5-((2-(1-methyl-1H-pyrazol-4-yl)pyridin-4-yl)oxy)pyridin-2-yl)-1H-1,2,4-triazol-5(4H)-one]: the IC50 was 10 to 100 nM in assay [1] and 100 to 1000 nM in assay [2].
